Tests used:
Conditions in all cases: 72 h
[1] = system: Caco-2; experiment: cell viability relative to DMSO; higher = less toxic
[2] = system: Vero E6; experiment: as above
[3] = system: U2OS; experiment: as above
[4] = system: HepG2; experiment: as above
[5] = system: Caco-2; experiment: drug sensitivity score (DSS) for viability; higher = more toxic; extreme values may be limits of the assay
[6] = system: Vero E6; experiment: as above
[7] = system: U2OS; experiment: as above
[8] = system: HepG2; experiment: as above
[9] = system: Caco-2; experiment: relative viability EC50 (midpoint between 100% and the lowest measured viability); higher = less toxic
[10] = system: Vero E6; experiment: as above
[11] = system: U2OS; experiment: as above
[12] = system: HepG2; experiment: as above
[13] = system: Calu-3; experiment: cell viability relative to DMSO; higher = less toxic
[14] = system: Calu-3; experiment: drug sensitivity score (DSS) for viability; higher = more toxic; extreme values may be limits of the assay
[15] = system: Calu-3; experiment: relative viability EC50 (midpoint between 100% and the lowest measured viability); higher = less toxic

| Compound | cell viability ([1]; 1 nM) [%] | cell viability ([1]; 10 nM) [%] | cell viability ([1]; 100 nM) [%] | cell viability ([1]; 1000 nM) [%] | cell viability ([1]; 10000 nM) [%] | cell viability ([2]; 1 nM) [%] | cell viability ([2]; 10 nM) [%] | cell viability ([2]; 100 nM) [%] | cell viability ([2]; 1000 nM) [%] | cell viability ([2]; 10000 nM) [%] | cell viability ([3]; 1 nM) [%] | cell viability ([3]; 10 nM) [%] | cell viability ([3]; 100 nM) [%] | cell viability ([3]; 1000 nM) [%] | cell viability ([3]; 10000 nM) [%] | cell viability ([4]; 1 nM) [%] | cell viability ([4]; 10 nM) [%] | cell viability ([4]; 100 nM) [%] | cell viability ([4]; 1000 nM) [%] | cell viability ([4]; 10000 nM) [%] | drug sensitivity score [5] | drug sensitivity score [6] | drug sensitivity score [7] | drug sensitivity score [8] | relative viability EC50 [9] [µM] | relative viability EC50 [10] [µM] | relative viability EC50 [11] [µM] | relative viability EC50 [12] [µM] | cell viability ([13]; 1 nM) [%] | cell viability ([13]; 10 nM) [%] | cell viability ([13]; 100 nM) [%] | cell viability ([13]; 1000 nM) [%] | cell viability ([13]; 10000 nM) [%] | drug sensitivity score [14] | relative viability EC50 [15] [µM] |
| --- | --- | --- | --- | --- | --- | --- | --- | --- | --- | --- | --- | --- | --- | --- | --- | --- | --- | --- | --- | --- | --- | --- | --- | --- | --- | --- | --- | --- | --- | --- | --- | --- | --- | --- | --- |
| O=C(O)CN1C(=O)c2cccc3cccc(c23)C1=O [alrestatin] | 99 | 95.2 | 101 | 96.7 | 107 | 94.8 | 102 | 105 | 96.6 | 101 | 98.9 | 96.6 | 96.1 | 102 | 105 | 95.4 | 102 | 90.7 | 98 | 101 | 0 | 0 | 0 | 0 | > 10 | > 10 | > 10 | > 10 | – | – | – | – | – | – | – |
| OC[C@H]1O[C@@H](Oc2ccc(O)cc2)[C@H](O)[C@@H](O)[C@@H]1O [arbutin] | 95.7 | 101 | 105 | 96 | 103 | 98.6 | 98 | 91.6 | 94.6 | 94.5 | 97.9 | 102 | 102 | 97.5 | 108 | 99.2 | 109 | 98.6 | 105 | 103 | 0 | 0 | 0 | 0 | > 10 | > 10 | > 10 | > 10 | – | – | – | – | – | – | – |
| Cc1ccc(C)c([C@H](O)CNC(C)C)c1 [benzenemethanol,-2,5-dimethyl-[[(1-methylethyl)amino]methyl]] | 102 | 96.3 | 92.6 | 93.7 | 96.3 | 103 | 107 | 98.4 | 103 | 101 | 101 | 99.4 | 102 | 99.2 | 102 | 111 | 92.6 | 101 | 100 | 104 | 0 | 0 | 0 | 0 | > 10 | > 10 | > 10 | > 10 | – | – | – | – | – | – | – |
| O=C(Cn1ccnc1[N+](=O)[O-])NCc1ccccc1 [benznidazole] | 98 | 98.8 | 96.4 | 93.2 | 96 | 97.3 | 98.5 | 96.4 | 101 | 98.1 | 98 | 97.3 | 92.4 | 90 | 99.8 | 97.3 | 95.9 | 93.7 | 94.4 | 94.2 | 0 | 0 | 0 | 0 | > 10 | > 10 | > 10 | > 10 | – | – | – | – | – | – | – |
| CC(=O)O[C@]1(C(C)=O)CC[C@H]2[C@@H]3C=C(Cl)C4=CC(=O)CC[C@]4(C)[C@H]3CC[C@@]21C [chlormadinone-acetate] | 101 | 106 | 115 | 98.8 | 103 | 93.2 | 96.9 | 91.9 | 92.5 | 90 | 97.2 | 92.7 | 96.1 | 90.6 | 95 | 98.1 | 98.8 | 100 | 92 | 112 | 0 | 0 | 0 | 0 | > 10 | > 10 | > 10 | > 10 | – | – | – | – | – | – | – |
| C[N+]12CCC(CC1)C(OC(=O)C(O)(c1ccccc1)c1ccccc1)C2 (centres undefined) [clidinium] | 102 | 112 | 106 | 95.4 | 103 | 102 | 102 | 101 | 102 | 99.8 | – | – | – | – | – | 92.5 | 108 | 90.6 | 104 | 99.7 | 0 | 0 | – | 0 | > 10 | > 10 | – | > 10 | – | – | – | – | – | – | – |
| CC(C)/N=c1\cc2n(-c3ccc(Cl)cc3)c3ccccc3nc-2cc1Nc1ccc(Cl)cc1 [clofazimine] | 106 | 101 | 98.3 | 84.5 | 60.4 | 101 | 99.6 | 103 | 104 | 91.3 | 98 | 100 | 101 | 98.1 | 91.6 | 94.1 | 105 | 89.8 | 97 | 68.3 | 3.8 | 0 | 0 | 1.9 | – | > 10 | > 10 | – | 101 | 97.6 | 91.3 | 98.1 | 94.4 | 0 | > 10 |
| CN(C)CCOC(=O)C(c1ccccc1)C1(O)CCCC1 (centres undefined) [cyclopentolate] | 96.9 | 97.6 | 93 | 100 | 102 | 99.1 | 103 | 102 | 101 | 107 | 100 | 96.5 | 98.4 | 97.9 | 98.5 | 103 | 115 | 97.6 | 111 | 91.3 | 0 | 0 | 0 | 0 | > 10 | > 10 | > 10 | > 10 | – | – | – | – | – | – | – |
| Oc1cc(O)c2cc(O)c(-c3cc(O)c(O)c(O)c3)[o+]c2c1 [delphinidin] | 101 | 95.5 | 90.8 | 94.6 | 83.4 | 100 | 98.8 | 98.3 | 92.7 | 97.9 | 103 | 104 | 98.1 | 102 | 99.2 | 104 | 102 | 103 | 114 | 96.5 | 0.5 | 0 | 0 | 0 | > 10 | > 10 | > 10 | > 10 | – | – | – | – | – | – | – |
| COc1ccc(CN(CCN(C)C)c2ccccn2)cc1 [mepyramine] | – | – | – | – | – | 95.7 | 93.1 | 95.1 | 98.5 | 102 | 98 | 99.8 | 103 | 101 | 95.9 | 99.8 | 95.7 | 91 | 102 | 92.8 | – | 0 | 0 | 0 | – | > 10 | > 10 | > 10 | 101 | 113 | 112 | 106 | 93 | 0 | > 10 |
| CCCOc1ccc(S(=O)(=O)N2CCN(CCO)CC2)cc1-c1nc2c(CCC)cn(CC)c2c(=O)[nH]1 [mirodenafil] | 105 | 111 | 96.5 | 107 | 85.6 | 100 | 101 | 101 | 94.9 | 102 | 102 | 104 | 99.6 | 103 | 96.3 | 105 | 98.1 | 108 | 100 | 99.7 | 0.1 | 0 | 0 | 0 | > 10 | > 10 | > 10 | > 10 | – | – | – | – | – | – | – |
| O=C(OCC(COC(=O)c1cccnc1)(COC(=O)c1cccnc1)COC(=O)c1cccnc1)c1cccnc1 [niceritrol] | 93.9 | 88.4 | 92.7 | 93.3 | 86.9 | 92.6 | 103 | 96.8 | 96.9 | 73.8 | 102 | 104 | 101 | 101 | 98.8 | 93.7 | 94.1 | 92.7 | 98.2 | 101 | 0 | 1.5 | 0 | 0 | > 10 | – | > 10 | > 10 | 98.5 | 108 | 101 | 106 | 115 | 0 | > 10 |
| CNCCC=C1c2ccccc2CCc2ccccc21 [nortriptyline] | 108 | 86.1 | 96.4 | 97.7 | 70 | 106 | 106 | 102 | 90 | 79.8 | 99.5 | 96.8 | 98.1 | 97.4 | 93.8 | 110 | 106 | 112 | 119 | 65 | 1.6 | 1.6 | 0 | 1 | – | > 10 | > 10 | – | 100 | 98.7 | 99.4 | 96.5 | 82.1 | 0.9 | > 10 |
| CCCCCCCCCCCCCCCCCCO [octadecan-1-ol] | – | – | – | – | – | 99.2 | 103 | 102 | 94.2 | 107 | – | – | – | – | – | – | – | – | – | – | – | 0 | – | – | – | > 10 | – | – | – | – | – | – | – | – | – |
| C=CC(=O)Nc1cccc(Oc2nc(Nc3ccc(N4CCN(C)CC4)cc3)nc3ccsc23)c1 [olmutinib] | 99.2 | 98.3 | 90.9 | 83.5 | 69 | 100 | 98.7 | 96.7 | 92.2 | 5.1 | 100 | 101 | 96.6 | 92.7 | 59.4 | 95 | 93.5 | 100 | 99.6 | 51 | 3.2 | 6.5 | 3.2 | 2.6 | – | 2.49 | – | – | 110 | 105 | 89 | 68.4 | 14.8 | 8.3 | 1.35 |
| CN(C)CCN(Cc1ccccc1)c1ccccn1 [tripelennamine] | – | – | – | – | – | 110 | 110 | 105 | 102 | 97.1 | – | – | – | – | – | 108 | 111 | 101 | 89.7 | 78.9 | – | 0 | – | 1.8 | – | > 10 | – | > 10 | – | – | – | – | – | – | – |
| N[C@@H]1[C@H]2CN(c3nc4c(cc3F)c(=O)c(C(=O)O)cn4-c3ccc(F)cc3F)C[C@@H]12 [trovafloxacin] | 95.6 | 122 | 84.7 | 85.5 | 71.5 | 95.7 | 98.8 | 102 | 110 | 98.2 | 101 | 108 | 99.8 | 105 | 89.9 | 115 | 104 | 102 | 106 | 29.9 | 3.1 | 0 | 0 | 3.4 | – | > 10 | > 10 | 3.6 | 102 | 103 | 92.4 | 97.6 | 64.1 | 2.1 | – |

Source: the supplement of paper PMC13380429
